Key:
[1] = Inhibition of Bordetella pertussis Adenylate cyclase toxin in mouse J774.A1 cells preincubated for 5 hrs followed by ACT addition and measured after 30 mins by CatchPointcAMP immunoassay method; format: cell-based
[2] = Cytotoxicity against mouse J774.A1 cells assessed as cell viability at 10 uM incubated for 5 hrs by Cell Titer-Glo Luminescent Cell Viability assay relative to control; format: toxicity, cell-based; conditions: read-out: Activity
HEK293 = test: Cytotoxicity against AC1 expressed HEK293 cells by CellTiter-Glo 2.0 assay relative to control; format: toxicity, cell-based; design: concentration or dose not given beside the values; conditions: human
Adenylate cyclase type 2 = Adenylate cyclase type 2 (Homo sapiens, UniProt Q08462); test: Inhibition of human adenylate cyclase 2 expressed in ACdelta 3/6 knockout HEK293 cells assessed as cyclic AMP accumulation incubated for 30 min followed by FSK stimulation by HTR-FRET assay; format: cell-based
D(1A) dopamine receptor = D(1A) dopamine receptor (Homo sapiens, UniProt P21728); test: Inhibition of human D1 receptor expressed in HEK293 cells assessed as cyclic AMP accumulation incubated for 1 hr in presence of dopamine by HTR-FRET assay; format: functional, cell-based
NHDF = test: Cytotoxicity against human NHDF cells by CellTiter-Glo 2.0 assay; format: toxicity, cell-based
HL-60 = test: Cytotoxicity against human HL-60 cells by CellTiter-Glo 2.0 assay; format: functional, cell-based
HeLa S3 = test: Cytotoxicity against human HeLa S3 cells by CellTiter-Glo 2.0 assay; format: functional, cell-based
CCRF-CEM = test: Cytotoxicity against human CCRF-CEM cells by CellTiter-Glo 2.0 assay; format: functional, cell-based
HepG2 = test: Cytotoxicity against human HepG2 cells by CellTiter-Glo 2.0 assay; format: functional, cell-based

Chain of D(1A) dopamine receptor (P21728 whole entry): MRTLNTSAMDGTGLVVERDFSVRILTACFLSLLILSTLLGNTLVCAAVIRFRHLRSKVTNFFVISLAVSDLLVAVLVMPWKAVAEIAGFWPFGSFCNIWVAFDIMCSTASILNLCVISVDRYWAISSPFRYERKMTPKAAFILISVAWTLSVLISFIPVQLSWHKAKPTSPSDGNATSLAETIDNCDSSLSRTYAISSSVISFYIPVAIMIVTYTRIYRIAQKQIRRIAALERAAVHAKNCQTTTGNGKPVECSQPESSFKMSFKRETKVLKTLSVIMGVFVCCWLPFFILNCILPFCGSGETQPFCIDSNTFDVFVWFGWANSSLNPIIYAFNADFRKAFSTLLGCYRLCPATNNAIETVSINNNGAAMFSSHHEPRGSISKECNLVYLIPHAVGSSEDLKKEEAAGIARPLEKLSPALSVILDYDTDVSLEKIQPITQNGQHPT
Chain of Adenylate cyclase type 2 (Q08462 whole entry): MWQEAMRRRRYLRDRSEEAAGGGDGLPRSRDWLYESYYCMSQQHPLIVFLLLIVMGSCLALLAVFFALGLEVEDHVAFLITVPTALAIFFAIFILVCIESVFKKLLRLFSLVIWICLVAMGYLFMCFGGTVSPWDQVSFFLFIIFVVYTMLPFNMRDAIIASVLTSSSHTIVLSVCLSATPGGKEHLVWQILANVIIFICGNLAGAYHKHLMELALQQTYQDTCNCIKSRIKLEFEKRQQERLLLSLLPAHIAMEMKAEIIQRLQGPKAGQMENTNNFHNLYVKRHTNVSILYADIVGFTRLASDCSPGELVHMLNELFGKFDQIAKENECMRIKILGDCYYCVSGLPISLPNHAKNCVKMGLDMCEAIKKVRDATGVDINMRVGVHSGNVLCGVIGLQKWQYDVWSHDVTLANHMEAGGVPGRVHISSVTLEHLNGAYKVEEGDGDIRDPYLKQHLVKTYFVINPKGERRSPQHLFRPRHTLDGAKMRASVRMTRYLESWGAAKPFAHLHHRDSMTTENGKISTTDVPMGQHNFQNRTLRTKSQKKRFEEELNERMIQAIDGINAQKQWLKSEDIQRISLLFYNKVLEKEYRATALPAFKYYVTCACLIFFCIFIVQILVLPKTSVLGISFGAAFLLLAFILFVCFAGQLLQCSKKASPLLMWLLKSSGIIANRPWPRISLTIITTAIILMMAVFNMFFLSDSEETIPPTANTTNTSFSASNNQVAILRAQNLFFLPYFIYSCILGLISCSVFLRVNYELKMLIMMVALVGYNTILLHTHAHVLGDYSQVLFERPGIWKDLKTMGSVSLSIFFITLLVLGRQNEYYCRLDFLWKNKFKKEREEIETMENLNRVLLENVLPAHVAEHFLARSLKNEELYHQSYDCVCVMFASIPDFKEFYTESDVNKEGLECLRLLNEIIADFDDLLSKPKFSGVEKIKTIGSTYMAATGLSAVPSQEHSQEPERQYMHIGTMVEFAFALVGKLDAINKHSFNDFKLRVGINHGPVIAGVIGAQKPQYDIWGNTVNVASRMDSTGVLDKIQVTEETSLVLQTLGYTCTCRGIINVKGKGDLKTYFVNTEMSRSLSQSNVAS

What does the source list for `CC(C)OC(=O)[C@H](Cc1ccccc1)NP(=O)(COCCn1cc(-c2cccc(-c3noc(=O)[nH]3)c2)c2c(N)ncnc21)N[C@@H](Cc1ccccc1)C(=O)OC(C)C`?
IC50 [1]: > 10 µM; viability at 5 h, 10 µM [2]: 114%; Activity (HEK293): 89%; IC50 (Adenylate cyclase type 2): 4.45 µM; IC50 (D(1A) dopamine receptor): > 10 µM; IC50 (NHDF): > 10 µM; IC50 (HL-60): 10 µM; IC50 (HeLa S3): > 10 µM; IC50 (CCRF-CEM): > 10 µM; IC50 (HepG2): > 10 µM

From ChEMBL document CHEMBL5390272, “Discovery of a potent and selective human AC2 inhibitor based on 7-deazapurine analogues of adefovir” (Bioorg Med Chem, 2023)
